Measured values from patent US7323541B2, “Polypeptide DNA thereof and use of the same” (Takeda Pharmaceutical Company Limited, priority 2001, dated 2008).
Changes are numbered by the printed parent chain. Where no end group is shown, it is not given here.

How the values were obtained:
Test in all cases: Intracellular Ca ion concentration increasing activity using FLIPR
Type in all cases: cell-based
[1] = target: T1, human TGR23-1B expressing CHO cells (Homo sapiens, UniProt Q6W5P4, N107I/S241R)
T1 construct: expressed in transfected cells; host or cells: CHO dhfr- cells, pAKKO-TGR23-1B, clone No. 59
T1 sequence (Q6W5P4 1-371 N107I/S241R): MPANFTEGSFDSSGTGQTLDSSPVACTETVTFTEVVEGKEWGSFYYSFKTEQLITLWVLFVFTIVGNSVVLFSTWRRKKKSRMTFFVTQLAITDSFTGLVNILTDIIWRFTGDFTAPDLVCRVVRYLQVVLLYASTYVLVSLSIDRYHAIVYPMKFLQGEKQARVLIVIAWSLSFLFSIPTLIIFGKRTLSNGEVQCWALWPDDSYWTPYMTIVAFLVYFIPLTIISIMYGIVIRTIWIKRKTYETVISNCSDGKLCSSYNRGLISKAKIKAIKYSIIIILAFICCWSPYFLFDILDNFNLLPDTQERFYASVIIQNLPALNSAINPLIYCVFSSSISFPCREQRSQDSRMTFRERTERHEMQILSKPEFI
Experimental: (§1) An enhancing activity of intracellular Ca^2+ release was assayed using FLIPR (Molecular Devices, Inc.). The CHO/TGR23-2 cells prepared in Example 1 and selected in Example 2 were plated on 96-well plate at 3×10^4 cells/well and cultured for 24 hours. A loading buffer was prepared by adding 1 vial of Fluo 3-AM to 10 ml of Hanks' solution (pH7.4) containing 2.5 mM Probenecid and 20 mM HEPES (hereafter, Hanks' solution (pH7.4) containing 2.5 mM Probenecid and 20 mM HEPES may be referred to as a washing buffer). The culture medium was discarded from the culture plate and 100 μl/well of the loading buffer were added to the cells. Then, the cells were incubated for 60 minutes in the incubator. After the loading buffer was removed from the culture plate and the cells were washed with the washing buffer, the plate was put in place of FLIPR. A sample was prepared by adding a sample buffer, which 2 mg/ml BSA and 1 mg/ml CHAPS were added to the washing buffer, to lyophilized product, stirring and treating by ultrasonication for 30 minutes, and transferred to 96-well sample plate. This sample plate was also put in place for assay. The enhancing activity of intracellular Ca^2+ release was measured as an increase of fluorescent intensity, which is raised by addition of the sample.
(§2) The human TGR23-2 ligand (1-20) having various concentrations was administered in accordance with the method described in Example 5, to the CHO cells, in which human TGR23-1A, human TGR23-1B, human TGR23-1C and human TGR23-1D are expressed. Subsequently, the intracellular Ca ion concentration increasing activity was measured using FLIPR.

[2] = target: T2, human TGR23-1D expressing CHO cells (Homo sapiens, UniProt Q6W5P4, Q344R)
T2 construct: expressed in transfected cells; host or cells: CHO dhfr- cells, pAKKO-TGR23-1D, clone No. 12
T2 sequence (Q6W5P4 1-371 Q344R): T1 sequence (Q6W5P4 1-371 N107I/S241R) with I107N, R241S, Q344R
Experimental: as §1, §2

[3] = target: T3, human TGR23-1A expressing CHO cells (Homo sapiens, UniProt Q6W5P4, S241R)
T3 construct: expressed in transfected cells; host or cells: CHO dhfr- cells, pAKKO-TGR23-1A, clone No. 60
T3 sequence (Q6W5P4 1-371 S241R): T1 sequence (Q6W5P4 1-371 N107I/S241R) with I107N
Experimental: as §1, §2

[4] = target: T4, human TGR23-1C expressing CHO cells (Homo sapiens, UniProt Q6W5P4, N107I)
T4 construct: expressed in transfected cells; host or cells: CHO dhfr- cells, pAKKO-TGR23-1C, clone No. 9
T4 sequence (Q6W5P4 1-371 N107I): T1 sequence (Q6W5P4 1-371 N107I/S241R) with R241S
Experimental: as §1, §2

Q: With “SFRNGVGTGMKKTSFQRAKS [human TGR23-2 ligand (1-20)]” as the sequence, how does the “intracellular Ca ion concentration increasing activity” value [1] read?
A: the intracellular Ca ion level increased depending on the concentration of this ligand

Q: And the “intracellular Ca ion concentration increasing activity” value [2]?
A: the intracellular Ca ion level increased depending on the concentration of this ligand

Q: And the “intracellular Ca ion concentration increasing activity” value [3]?
A: the intracellular Ca ion level increased depending on the concentration of this ligand

Q: And the “intracellular Ca ion concentration increasing activity” value [4]?
A: the intracellular Ca ion level increased depending on the concentration of this ligand
